This is an account of results in ChEMBL document CHEMBL5500383, “Recent advances and future directions on small molecule VEGFR inhibitors in oncological conditions” (Eur J Med Chem, 2024).

Series [1] has as its target T1, Vascular endothelial growth factor receptor 2 (Homo sapiens, UniProt P35968). Briefly: Inhibition of human recombinant VEGFR2 using biotinylated poly-GluTyr (4:1) as susbtrate measured for 1 hr by ELISA method. (In general: In an ELISA, binding on a coated surface is turned into a signal by an enzyme label.)
Series [2] deals with HepG2. The experiment in a line: Cytotoxicity against human HepG2 cells assessed as reduction in cell viability measured after 72 hrs by MTT assay. The format is functional, cell-based. Conditions: HepG2, 72 h. In general terms: Formazan colour is commonly taken as a measure of viable cells.
For series [3], the system named is HCT-116. Briefly: Cytotoxicity against human HCT-116 cells assessed as reduction in cell viability measured after 72 hrs by MTT assay. The format is functional, cell-based. Conditions: HCT-116, 72 h.
Series [4] relates to MCF7. The experiment in a line: Cytotoxicity against human MCF7 cells assessed as reduction in cell viability measured after 72 hrs by MTT assay. The format is functional, cell-based. The settings on record: MCF7, 72 h.
Series [5] is described as follows: Cytotoxicity against African green monkey Vero cells assessed as inhibition of cell growth incubated for 24 hrs by MTT assay. The format is toxicity, cell-based, Chlorocebus sabaeus.
Series [6] deals with MCF7. Briefly: Antiproliferative activity against human MCF7 cells assessed as cell growth inhibition measured for 24 hrs by MTT assay. The format is functional, cell-based. The settings on record: MCF7, 24 h.
Series [7] concerns the target T1, Vascular endothelial growth factor receptor 2. Briefly: Inhibition of VEGFR2 (unknown origin).
Another series addresses Histone deacetylase 1 (Homo sapiens, UniProt Q13547). Briefly: Inhibition of HDAC1 (unknown origin).
A further series concerns the target Histone deacetylase 4 (Homo sapiens, UniProt P56524). Briefly: Inhibition of HDAC4 (unknown origin).
Series [8] addresses T2, Protein deacetylase HDAC6 (Homo sapiens, UniProt Q9UBN7).
T2 sequence (Q9UBN7 whole entry): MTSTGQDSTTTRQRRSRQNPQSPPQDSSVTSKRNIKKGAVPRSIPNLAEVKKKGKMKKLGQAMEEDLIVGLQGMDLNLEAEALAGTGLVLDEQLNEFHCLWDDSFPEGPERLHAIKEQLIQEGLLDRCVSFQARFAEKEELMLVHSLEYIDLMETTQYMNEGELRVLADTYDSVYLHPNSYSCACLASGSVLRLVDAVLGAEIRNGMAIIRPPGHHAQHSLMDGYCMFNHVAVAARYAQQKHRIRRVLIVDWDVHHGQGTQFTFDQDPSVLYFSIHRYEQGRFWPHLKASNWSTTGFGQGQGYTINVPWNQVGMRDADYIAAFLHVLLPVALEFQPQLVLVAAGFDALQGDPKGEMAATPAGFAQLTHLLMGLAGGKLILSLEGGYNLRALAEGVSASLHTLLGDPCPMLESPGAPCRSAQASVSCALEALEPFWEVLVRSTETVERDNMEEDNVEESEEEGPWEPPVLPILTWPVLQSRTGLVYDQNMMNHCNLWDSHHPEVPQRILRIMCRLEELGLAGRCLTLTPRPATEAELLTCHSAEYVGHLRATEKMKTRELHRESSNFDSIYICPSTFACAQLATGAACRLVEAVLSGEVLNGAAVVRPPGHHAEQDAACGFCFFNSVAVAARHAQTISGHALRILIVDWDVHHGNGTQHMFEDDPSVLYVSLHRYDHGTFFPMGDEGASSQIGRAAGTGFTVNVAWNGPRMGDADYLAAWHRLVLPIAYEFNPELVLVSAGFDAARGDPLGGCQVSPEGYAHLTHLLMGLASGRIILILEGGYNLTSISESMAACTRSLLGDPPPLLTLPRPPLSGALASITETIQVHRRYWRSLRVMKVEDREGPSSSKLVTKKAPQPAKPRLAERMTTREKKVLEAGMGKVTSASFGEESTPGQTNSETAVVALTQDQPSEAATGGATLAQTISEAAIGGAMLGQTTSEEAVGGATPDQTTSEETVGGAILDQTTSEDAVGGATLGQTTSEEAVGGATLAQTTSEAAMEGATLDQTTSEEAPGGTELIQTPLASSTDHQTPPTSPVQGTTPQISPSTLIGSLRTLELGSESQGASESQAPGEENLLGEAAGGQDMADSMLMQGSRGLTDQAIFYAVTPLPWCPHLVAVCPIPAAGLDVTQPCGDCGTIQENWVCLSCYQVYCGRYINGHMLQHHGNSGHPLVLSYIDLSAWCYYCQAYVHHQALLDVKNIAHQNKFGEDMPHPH
Briefly: Inhibition of HDAC6 (unknown origin).

Series [9] has as its target Vascular endothelial growth factor receptor 1 (Homo sapiens, UniProt P17948). The experiment in a line: Inhibition of VEGFR1 (unknown origin).
For series [10], the target named is Vascular endothelial growth factor receptor 3 (Homo sapiens, UniProt P35916). The experiment in a line: Inhibition of VEGFR3 (unknown origin).
For series [11], the target named is T1, Vascular endothelial growth factor receptor 2. The experiment in a line: Inhibition of human VEGFR2 by discoverX kinome scan assay.
Series [12] in a line: Cytotoxicity against HUVEC cells assessed as cell growth inhibition incubated for 72 hrs by MTT assay. The format is toxicity, cell-based. The settings on record: human.
In series [13] the target is T1, Vascular endothelial growth factor receptor 2. Briefly: Inhibition of VEGFR2 (unknown origin) by kinase profiling assay.
In series [14] the target is Serine/threonine-protein kinase B-raf (Homo sapiens, UniProt P15056, V600E). Briefly: Inhibition of BRAF V600E mutant (unknown origin).
Series [15] addresses RAF proto-oncogene serine/threonine-protein kinase (Homo sapiens, UniProt P04049). Briefly: Inhibition of C-RAF (unknown origin).
Series [16] can be described thus: Inhibition of VEGFR (unknown origin). On the set-up: species or system Homo sapiens.
In the next series the test system is CAKI-1. Briefly: Cytotoxicity against human CAKI-1 cells assessed as reduction in cell growth incubated for 48 hrs by MTT assay. The format is functional, cell-based. The settings on record: CAKI-1, 48 h.
In the next series the test system is A498. Briefly: Cytotoxicity against human A498 cells assessed as reduction in cell viability incubated for 48 hrs by MTT assay. The format is functional, cell-based. The settings on record: A498, 48 h.
Series [17] addresses Serine/threonine-protein kinase B-raf (Homo sapiens, UniProt P15056). The experiment in a line: Inhibition of wild type BRAF (unknown origin).
For series [18], the system named is HepG2. The experiment in a line: Cytotoxicity against human HepG2 cells assessed as inhibition of cell growth incubated for 48 hrs by MTT assay. The format is functional, cell-based. Conditions: HepG2, 48 h.
Series [19] deals with HCT-116. The experiment in a line: Cytotoxicity against human HCT-116 cells assessed as inhibition of cell growth incubated for 48 hrs by MTT assay. The format is functional, cell-based. The settings on record: HCT-116, 48 h.
Series [20] has as its system MCF7. The experiment in a line: Cytotoxicity against human MCF7 cells assessed as inhibition of cell growth incubated for 48 hrs by MTT assay. The format is functional, cell-based. The settings on record: MCF7, 48 h.
For the next series, the system named is PC-3. Briefly: Cytotoxicity against human PC-3 cells assessed as inhibition of cell growth incubated for 48 hrs by MTT assay. The settings on record: PC-3, 48 h. The format is functional, cell-based.
Series [21] has as its target T1, Vascular endothelial growth factor receptor 2. Briefly: Inhibition of VEGFR2 (unknown origin) incubated for 1 hr in presence of ATP by ELISA method.
Series [22] has as its target Epidermal growth factor receptor (Homo sapiens, UniProt P00533). The experiment in a line: Inhibition of EGFR (unknown origin) by DiscoverX KINOMEscan assay.
Series [23] relates to HepG2. The experiment in a line: Antiproliferative activity against human HepG2 cells assessed as cell growth inhibition measured for 24 hrs by MTT assay. The format is functional, cell-based. The settings on record: HepG2, 24 h.
A further series relates to A549. Briefly: Antiproliferative activity against human A549 cells assessed as cell growth inhibition measured for 24 hrs by MTT assay. The format is functional, cell-based. Conditions: A549, 24 h.
The test system of series [24] is MCF7. The experiment in a line: Antiproliferative actiivty against human MCF7 cells assessed as reduction in cell viability by MTT assay. The format is functional, cell-based.
The subject of series [25] is HCT-116. Briefly: Antiproliferative actiivty against human HCT-116 cells assessed as reduction in cell viability by MTT assay. The format is functional, cell-based.
Series [26] in a line: Antiproliferative actiivty against human WI-38 cells assessed as reduction in cell viability by MTT assay. The format is toxicity, cell-based.
Series [27] has as its target T1, Vascular endothelial growth factor receptor 2. Briefly: Inhibition of human VEGFR2.

T1 sequence (P35968 whole entry): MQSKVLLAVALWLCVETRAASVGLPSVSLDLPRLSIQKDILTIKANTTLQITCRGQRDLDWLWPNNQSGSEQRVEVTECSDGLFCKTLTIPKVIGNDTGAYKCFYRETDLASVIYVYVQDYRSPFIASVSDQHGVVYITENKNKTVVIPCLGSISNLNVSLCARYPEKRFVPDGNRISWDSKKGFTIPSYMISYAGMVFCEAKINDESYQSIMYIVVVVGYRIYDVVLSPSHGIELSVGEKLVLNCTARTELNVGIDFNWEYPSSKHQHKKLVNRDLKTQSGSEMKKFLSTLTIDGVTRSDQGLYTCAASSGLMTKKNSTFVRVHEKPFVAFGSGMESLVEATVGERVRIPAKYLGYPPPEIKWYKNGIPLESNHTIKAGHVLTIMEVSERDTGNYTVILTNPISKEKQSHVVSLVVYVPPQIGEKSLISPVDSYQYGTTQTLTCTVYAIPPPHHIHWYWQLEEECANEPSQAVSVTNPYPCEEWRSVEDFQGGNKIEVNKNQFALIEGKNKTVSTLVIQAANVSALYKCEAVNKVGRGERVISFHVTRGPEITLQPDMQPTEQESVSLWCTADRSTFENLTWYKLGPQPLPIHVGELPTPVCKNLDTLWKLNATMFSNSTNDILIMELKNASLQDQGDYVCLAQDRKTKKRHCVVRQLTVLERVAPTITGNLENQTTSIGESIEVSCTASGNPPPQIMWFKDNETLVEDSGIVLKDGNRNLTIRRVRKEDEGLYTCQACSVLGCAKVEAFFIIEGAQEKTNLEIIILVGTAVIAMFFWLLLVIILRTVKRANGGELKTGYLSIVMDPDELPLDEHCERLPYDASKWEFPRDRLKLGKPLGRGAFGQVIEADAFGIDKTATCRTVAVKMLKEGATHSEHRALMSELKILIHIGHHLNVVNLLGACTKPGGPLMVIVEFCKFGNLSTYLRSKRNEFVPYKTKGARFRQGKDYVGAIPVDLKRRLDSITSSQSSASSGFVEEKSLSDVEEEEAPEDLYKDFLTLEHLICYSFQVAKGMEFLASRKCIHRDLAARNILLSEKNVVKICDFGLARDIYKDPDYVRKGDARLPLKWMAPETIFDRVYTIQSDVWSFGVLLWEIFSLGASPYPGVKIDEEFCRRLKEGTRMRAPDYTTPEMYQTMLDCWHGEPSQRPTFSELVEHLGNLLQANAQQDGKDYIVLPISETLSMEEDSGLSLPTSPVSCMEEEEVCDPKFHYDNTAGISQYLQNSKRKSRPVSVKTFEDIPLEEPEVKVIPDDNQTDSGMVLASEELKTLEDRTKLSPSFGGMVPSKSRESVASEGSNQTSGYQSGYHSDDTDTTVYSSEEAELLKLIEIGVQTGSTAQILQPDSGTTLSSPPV
Chain of Vascular endothelial growth factor receptor 1 (P17948 whole entry): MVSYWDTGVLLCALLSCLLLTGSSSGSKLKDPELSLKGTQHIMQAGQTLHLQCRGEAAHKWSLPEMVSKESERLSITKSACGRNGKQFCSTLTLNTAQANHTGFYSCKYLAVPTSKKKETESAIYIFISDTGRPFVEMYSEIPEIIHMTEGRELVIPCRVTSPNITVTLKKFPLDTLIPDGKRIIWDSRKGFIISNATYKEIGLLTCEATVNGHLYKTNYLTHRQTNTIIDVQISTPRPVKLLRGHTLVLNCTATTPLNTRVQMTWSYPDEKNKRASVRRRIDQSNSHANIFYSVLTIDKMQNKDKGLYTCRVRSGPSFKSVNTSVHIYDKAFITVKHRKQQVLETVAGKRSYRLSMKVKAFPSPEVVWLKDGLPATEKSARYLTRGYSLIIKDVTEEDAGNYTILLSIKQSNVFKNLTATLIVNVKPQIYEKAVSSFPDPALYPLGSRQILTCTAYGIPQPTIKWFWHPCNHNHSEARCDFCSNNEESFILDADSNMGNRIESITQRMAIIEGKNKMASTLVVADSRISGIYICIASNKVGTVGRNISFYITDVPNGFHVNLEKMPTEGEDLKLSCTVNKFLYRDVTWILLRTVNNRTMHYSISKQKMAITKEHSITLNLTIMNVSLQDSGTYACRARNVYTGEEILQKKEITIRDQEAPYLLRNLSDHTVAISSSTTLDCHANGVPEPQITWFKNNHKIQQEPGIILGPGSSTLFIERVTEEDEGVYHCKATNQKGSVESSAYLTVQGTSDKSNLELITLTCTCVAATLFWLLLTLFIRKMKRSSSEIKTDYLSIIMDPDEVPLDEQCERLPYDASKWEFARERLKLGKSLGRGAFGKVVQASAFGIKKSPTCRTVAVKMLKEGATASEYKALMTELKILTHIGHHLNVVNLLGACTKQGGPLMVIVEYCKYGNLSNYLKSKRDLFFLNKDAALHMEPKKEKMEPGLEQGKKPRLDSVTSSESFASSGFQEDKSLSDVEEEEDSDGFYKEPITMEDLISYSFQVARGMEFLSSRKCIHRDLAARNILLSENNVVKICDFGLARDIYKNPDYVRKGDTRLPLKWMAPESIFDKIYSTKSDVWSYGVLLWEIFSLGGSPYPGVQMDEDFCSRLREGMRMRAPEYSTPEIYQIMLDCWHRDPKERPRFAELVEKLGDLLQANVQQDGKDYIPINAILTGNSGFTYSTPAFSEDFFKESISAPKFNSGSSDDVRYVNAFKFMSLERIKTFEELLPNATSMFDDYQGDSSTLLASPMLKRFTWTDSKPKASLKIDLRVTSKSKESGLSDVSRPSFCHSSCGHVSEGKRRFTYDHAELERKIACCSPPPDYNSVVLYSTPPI
Chain of Epidermal growth factor receptor (P00533 whole entry): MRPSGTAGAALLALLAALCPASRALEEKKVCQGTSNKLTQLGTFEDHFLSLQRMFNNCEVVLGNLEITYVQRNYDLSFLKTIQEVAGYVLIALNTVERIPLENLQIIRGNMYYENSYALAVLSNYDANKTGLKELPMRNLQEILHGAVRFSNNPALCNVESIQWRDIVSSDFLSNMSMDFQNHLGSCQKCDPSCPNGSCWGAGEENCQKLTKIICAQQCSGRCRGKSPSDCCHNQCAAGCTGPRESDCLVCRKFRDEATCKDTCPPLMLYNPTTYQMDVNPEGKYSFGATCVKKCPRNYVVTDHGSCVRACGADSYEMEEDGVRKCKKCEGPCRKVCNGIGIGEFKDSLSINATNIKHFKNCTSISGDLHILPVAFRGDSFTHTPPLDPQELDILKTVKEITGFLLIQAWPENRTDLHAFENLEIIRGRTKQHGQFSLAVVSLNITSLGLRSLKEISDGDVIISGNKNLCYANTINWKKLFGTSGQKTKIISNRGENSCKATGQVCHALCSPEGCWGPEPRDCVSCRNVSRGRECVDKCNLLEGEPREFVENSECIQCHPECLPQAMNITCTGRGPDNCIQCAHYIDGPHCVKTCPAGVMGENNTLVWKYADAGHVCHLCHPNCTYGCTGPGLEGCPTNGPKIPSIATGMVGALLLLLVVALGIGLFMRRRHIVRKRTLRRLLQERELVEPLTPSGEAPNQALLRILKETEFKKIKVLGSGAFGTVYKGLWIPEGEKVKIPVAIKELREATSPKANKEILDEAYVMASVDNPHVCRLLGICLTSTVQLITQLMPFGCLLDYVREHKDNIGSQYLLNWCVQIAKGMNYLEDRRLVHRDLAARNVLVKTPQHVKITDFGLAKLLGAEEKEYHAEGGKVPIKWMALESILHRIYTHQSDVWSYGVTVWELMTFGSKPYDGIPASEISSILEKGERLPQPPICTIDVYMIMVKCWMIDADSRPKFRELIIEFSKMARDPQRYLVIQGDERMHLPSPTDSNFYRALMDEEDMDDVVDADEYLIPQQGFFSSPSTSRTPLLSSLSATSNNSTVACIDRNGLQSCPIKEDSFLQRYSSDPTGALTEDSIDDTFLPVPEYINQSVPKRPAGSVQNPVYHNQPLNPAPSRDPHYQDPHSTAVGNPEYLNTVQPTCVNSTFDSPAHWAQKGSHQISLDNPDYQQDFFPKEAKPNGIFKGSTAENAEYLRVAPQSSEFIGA
Chain of Histone deacetylase 4 (P56524 whole entry): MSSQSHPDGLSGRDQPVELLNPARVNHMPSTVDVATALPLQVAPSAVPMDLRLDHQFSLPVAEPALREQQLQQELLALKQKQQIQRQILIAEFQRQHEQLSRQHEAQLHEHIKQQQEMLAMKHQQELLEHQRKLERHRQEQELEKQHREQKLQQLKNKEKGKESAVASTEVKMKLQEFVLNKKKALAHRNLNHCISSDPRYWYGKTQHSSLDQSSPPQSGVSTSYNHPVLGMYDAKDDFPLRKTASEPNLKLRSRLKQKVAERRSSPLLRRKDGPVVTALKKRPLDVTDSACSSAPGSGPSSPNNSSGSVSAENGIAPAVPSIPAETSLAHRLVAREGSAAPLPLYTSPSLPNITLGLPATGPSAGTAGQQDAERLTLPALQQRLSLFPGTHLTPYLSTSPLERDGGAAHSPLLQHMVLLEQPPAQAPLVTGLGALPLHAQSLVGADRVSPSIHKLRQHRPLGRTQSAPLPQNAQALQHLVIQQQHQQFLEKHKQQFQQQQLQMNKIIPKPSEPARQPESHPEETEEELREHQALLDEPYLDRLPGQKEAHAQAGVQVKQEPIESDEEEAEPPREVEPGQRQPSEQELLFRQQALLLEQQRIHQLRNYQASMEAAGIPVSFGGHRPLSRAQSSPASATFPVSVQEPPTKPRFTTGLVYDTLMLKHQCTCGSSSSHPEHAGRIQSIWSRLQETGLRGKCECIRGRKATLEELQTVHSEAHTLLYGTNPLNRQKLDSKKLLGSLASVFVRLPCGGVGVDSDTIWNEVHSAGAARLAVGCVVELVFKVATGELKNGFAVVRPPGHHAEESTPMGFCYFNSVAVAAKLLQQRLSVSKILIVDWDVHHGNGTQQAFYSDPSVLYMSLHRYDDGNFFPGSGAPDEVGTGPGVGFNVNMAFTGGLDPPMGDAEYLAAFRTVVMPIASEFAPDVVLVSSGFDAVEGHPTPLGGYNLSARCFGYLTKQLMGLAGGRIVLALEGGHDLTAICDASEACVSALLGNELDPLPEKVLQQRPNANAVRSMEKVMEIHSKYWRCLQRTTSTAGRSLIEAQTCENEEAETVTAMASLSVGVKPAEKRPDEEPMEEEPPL

In the case of `CCOC(=O)/C(=N\Nc1ccc(S(=O)(=O)Nc2nc(C)cc(C)n2)cc1)C(=O)NNc1ccccc1`, the IC50 in series [1] came to 0.15 µM; in the series with HepG2 [2], 8.97 µM; in the series on HCT-116 [3] it was 10.1 µM; in the series on MCF7 [4], 13.8 µM. Moreover, in series [5], the IC50 at 24 h was 59.8 µM.

For `Cc1cc(Oc2ncnc3sc4c(c23)CCCCC4)ccc1Cl`, in the series on MCF7 [6], the IC50 was determined as 0.66 µM.

On to `Cc1c2ccc(Nc3ccnc(Nc4ccc(OCCCCCCC(=O)NO)cc4)n3)cc2nn1C`, for which the IC50 in series [7] was 0.032 µM; against Histone deacetylase 1, 0.24 µM; against Histone deacetylase 4, above 9.17 µM; in [8], 0.063 µM; in series [9], 0.041 µM; in series [10], 0.066 µM.

Regarding `Cc1cc(NS(=O)(=O)c2ccc(NN=C3C(=O)NNC3=O)cc2)no1`, the IC50 in [1] is 0.15 µM; with HepG2 [2] it was 8.65 µM; with HCT-116 [3] it was 7.49 µM; in the series on MCF7 [4] it was 14.3 µM. In [5], the IC50 at 24 h worked out at 36.3 µM.

In the case of `COc1ccc(-c2nc3c4cc(-c5ccc(OC)cc5)oc4ccn3n2)cc1`, the 50% inhibitory concentration (IC50) in [11] and in series [13] was 58 µM throughout. Also, in [12], the IC50 at 72 h was 22.6 µM.

As for `COc1ccc(-n2c(SCC(=O)Nc3ccc(-c4nc5ccccc5[nH]4)cc3)nc3ccccc3c2=O)cc1`, the 50% inhibitory concentration (IC50) in [14] is above 100 µM; in series [15] it was above 100 µM; in series [16], 20.6 µM.

Turning to `CCCNNC(=O)c1ccc(Nc2nccc(N(C)c3ccc4c(C)n(C)nc4c3)n2)cc1`, the IC50 at Histone deacetylase 4 is above 10 µM; in series [8], 8.96 µM; in series [9], 0.034 µM; in series [10] it was 0.037 µM.

In the case of `COc1ccc(/C=N/n2c(-c3cc4ccccc4[nH]3)n[nH]c2=S)cc1`, the IC50 with CAKI-1 was 1.63 µM; with A498 it was 20.6 µM.

`O=C(CSc1nc2sc3c(c2c(=O)n1-c1ccc(Cl)cc1)CCCC3)NNC(=O)Nc1cccc(C(F)(F)F)c1`: the IC50 was 0.111 µM in [7], 0.071 µM in series [17] and 0.089 µM in series [14].

Consider `O=C(NC1=NN2C(=O)/C(=C/c3ccco3)N=C2S1)c1cccs1`, for which the IC50 in [7] is 9.4 µM; in the series with HepG2 [18], 6.8 µM; in the series with HCT-116 [19], 5.26 µM; in the series on MCF7 [20], 4.36 µM; in the series with PC-3, 8.01 µM.

Consider `COc1cc(-c2nc(SCC(=O)Nc3ccc(C(C)=O)cc3)[nH]c(=O)c2C#N)cc(OC)c1OC`, for which, in series [21], the IC50 was determined as 199 µM.

Regarding `CCOC(=O)/C(C#N)=C(\c1ccc(O)cc1)N1CC(=O)N(/N=C(\C)c2ccc(O)cc2O)C1=S`, the IC50 in series [22] was 11.4 µM; in the series with MCF7 [6], 1.63 µM; with HepG2 [23], 2.44 µM; with A549 it was 1.27 µM.

With `O=C(c1ccccc1)n1cc(-c2nc3cc(Cl)ccc3[nH]c2=O)c(=O)[nH]1`, the IC50 in the series with MCF7 [24] was found to be 3.57 µM; in the series on HCT-116 [25], 4.28 µM; in [26], 99.2 µM; in [27] it was 0.144 µM.

As for `C/C(=N\N1C(=O)CNC1=S)c1ccc(O)cc1O`, the IC50 worked out at 23.2 µM in series [22], 2.26 µM in the series on MCF7 [6], 5.18 µM with HepG2 [23] and 3.14 µM with A549.

Usually IC50 stands for the concentration at which inhibition is half-maximal.
